Experimental data from PubChem BioAssay AID1918933 (Molecular Pharmacology Branch, DTP, NCI, 2023).
pIC50: −log10 of the molar value. Several values for one entry are separate records, joined by “and”; a condition that tells them apart may be missing. Equal values may be shown once.

Test system: 186277-243-T-J2-PDC complex spheroid viability
Experiment: Anticancer human tumor 186277-243-T-J2-PDC patient-derived colon adenocarcinoma cell line growth inhibition
Settings: for viability, T/C: stronger effect = lower value
Method in brief: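 Complex spheroids of tumor cells with HUVEC and human MSCs, exposed to iadademstat combined with other agents. Each agent tested in half-log steps from near clinical Cmax (else 10 microM top), DMSO ≤0.25%.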

[1] = curve of first compound, second compound 0.1 µM
[2] = curve of first compound, second compound 0.316 µM
[3] = curve of first compound, second compound 1 µM
[4] = curve of first compound, second compound 3.16 µM
[5] = curve of first compound, second compound 10 µM
[6] = second compound 0.1 µM, first compound 0.000316 µM
[7] = second compound 0.1 µM, first compound 0.001 µM
[8] = second compound 0.1 µM, first compound 0.00316 µM
[9] = second compound 0.1 µM, first compound 0.01 µM
[10] = second compound 0.1 µM, first compound 0.0316 µM
[11] = second compound 0.1 µM, first compound 0.1 µM
[12] = second compound 0.316 µM, first compound 0.000316 µM
[13] = second compound 0.316 µM, first compound 0.001 µM
[14] = second compound 0.316 µM, first compound 0.00316 µM
[15] = second compound 0.316 µM, first compound 0.01 µM
[16] = second compound 0.316 µM, first compound 0.0316 µM
[17] = second compound 0.316 µM, first compound 0.1 µM
[18] = second compound 1 µM, first compound 0.000316 µM
[19] = second compound 1 µM, first compound 0.001 µM
[20] = second compound 1 µM, first compound 0.00316 µM
[21] = second compound 1 µM, first compound 0.01 µM
[22] = second compound 1 µM, first compound 0.0316 µM
[23] = second compound 1 µM, first compound 0.1 µM
[24] = second compound 3.16 µM, first compound 0.000316 µM
[25] = second compound 3.16 µM, first compound 0.001 µM
[26] = second compound 3.16 µM, first compound 0.00316 µM
[27] = second compound 3.16 µM, first compound 0.01 µM
[28] = second compound 3.16 µM, first compound 0.0316 µM
[29] = second compound 3.16 µM, first compound 0.1 µM
[30] = second compound 10 µM, first compound 0.000316 µM
[31] = second compound 10 µM, first compound 0.001 µM
[32] = second compound 10 µM, first compound 0.00316 µM
[33] = second compound 10 µM, first compound 0.01 µM
[34] = second compound 10 µM, first compound 0.0316 µM
[35] = second compound 10 µM, first compound 0.1 µM
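Also: 7 day exposure to compounds.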
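For viability, T/C in this document: 100% = DMSO vehicle control viability.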

Nc1ccccc1NC(=O)c1ccc(CNC(=O)OCc2cccnc2)cc1 + NC1CC1c1ccc(-c2cccc(O)c2)cc1
pIC50 [1]: 6.22 | pIC50 [2]: 6.24 | pIC50 [3]: 6.23 | pIC50 [4]: 6.25 | pIC50 [5]: 6.29 | viability, T/C (second compound 0.1 µM, first compound 0.00949 µM): 93.8% | viability, T/C (second compound 0.1 µM, first compound 0.03 µM): 104% | viability, T/C (second compound 0.1 µM, first compound 0.0949 µM): 91.6% | viability, T/C (second compound 0.1 µM, first compound 0.3 µM): 98.6% | viability, T/C (second compound 0.1 µM, first compound 0.949 µM): 18.1% | viability, T/C (second compound 0.1 µM, first compound 3 µM): 1.51% | viability, T/C (second compound 0.316 µM, first compound 0.00949 µM): 99.6% | viability, T/C (second compound 0.316 µM, first compound 0.03 µM): 99.6% | viability, T/C (second compound 0.316 µM, first compound 0.0949 µM): 108% | viability, T/C (second compound 0.316 µM, first compound 0.3 µM): 93.5% | viability, T/C (second compound 0.316 µM, first compound 0.949 µM): 15.4% | viability, T/C (second compound 0.316 µM, first compound 3 µM): 0.84% | viability, T/C (second compound 1 µM, first compound 0.00949 µM): 98.8% | viability, T/C (second compound 1 µM, first compound 0.03 µM): 94.1% | viability, T/C (second compound 1 µM, first compound 0.0949 µM): 98.8% | viability, T/C (second compound 1 µM, first compound 0.3 µM): 94.7% | viability, T/C (second compound 1 µM, first compound 0.949 µM): 17.7% | viability, T/C (second compound 1 µM, first compound 3 µM): 0.9% | viability, T/C (second compound 3.16 µM, first compound 0.00949 µM): 99.8% | viability, T/C (second compound 3.16 µM, first compound 0.03 µM): 110% | viability, T/C (second compound 3.16 µM, first compound 0.0949 µM): 109% | viability, T/C (second compound 3.16 µM, first compound 0.3 µM): 87.9% | viability, T/C (second compound 3.16 µM, first compound 0.949 µM): 18.5% | viability, T/C (second compound 3.16 µM, first compound 3 µM): 1.44% | viability, T/C (second compound 10 µM, first compound 0.00949 µM): 96.2% | viability, T/C (second compound 10 µM, first compound 0.03 µM): 97.3% | viability, T/C (second compound 10 µM, first compound 0.0949 µM): 104% | viability, T/C (second compound 10 µM, first compound 0.3 µM): 83.3% | viability, T/C (second compound 10 µM, first compound 0.949 µM): 11.8% | viability, T/C (second compound 10 µM, first compound 3 µM): 1.02%

CC[C@@]1(O)C(=O)OCc2c1cc1n(c2=O)Cc2cc3c(CN(C)C)c(O)ccc3nc2-1 + NC1CCC(NC2CC2c2ccccc2)CC1
pIC50 [1]: < 7.00 | pIC50 [2]: < 7.00 | pIC50 [3]: < 7.00 | pIC50 [4]: < 7.00 | pIC50 [5]: < 7.00 | viability, T/C [6]: 106% | viability, T/C [7]: 99.1% | viability, T/C [8]: 137% | viability, T/C [9]: 131% | viability, T/C [10]: 102% | viability, T/C [11]: 51.8% | viability, T/C [12]: 111% | viability, T/C [13]: 108% | viability, T/C [14]: 131% | viability, T/C [15]: 132% | viability, T/C [16]: 98.6% | viability, T/C [17]: 52.8% | viability, T/C [18]: 107% | viability, T/C [19]: 114% | viability, T/C [20]: 137% | viability, T/C [21]: 131% | viability, T/C [22]: 103% | viability, T/C [23]: 56.9% | viability, T/C [24]: 107% | viability, T/C [25]: 124% | viability, T/C [26]: 147% | viability, T/C [27]: 134% | viability, T/C [28]: 104% | viability, T/C [29]: 61.6% | viability, T/C [30]: 104% | viability, T/C [31]: 116% | viability, T/C [32]: 140% | viability, T/C [33]: 131% | viability, T/C [34]: 110% | viability, T/C [35]: 63.2%

CC(C)c1c(-c2ccccc2)nc2c(C#N)c[nH]n2c1=O
viability, T/C (compound 0.0316 µM): 94.8% and 108% | viability, T/C (compound 0.1 µM): 93.3% and 97.7% | viability, T/C (compound 0.316 µM): 101% and 99.1% | viability, T/C (compound 1 µM): 97.6% and 97.4% | viability, T/C (compound 3.16 µM): 96% and 82.9% | viability, T/C (compound 10 µM): 85.3% and 72.9% | pIC50 (curve of compound): < 5.00

CC(C)CC(NC(=O)CNC(=O)c1cc(Cl)ccc1Cl)B1OC(=O)CC(CC(=O)O)(C(=O)O)O1 (configuration not stated) + NC1CC1c1ccc(-c2cccc(O)c2)cc1
pIC50 [1]: 7.98 | pIC50 [2]: 7.96 | pIC50 [3]: 7.97 | pIC50 [4]: 7.97 | pIC50 [5]: 8.11 | viability, T/C [6]: 110% | viability, T/C [7]: 95.8% | viability, T/C [8]: 111% | viability, T/C [9]: 51.9% | viability, T/C [10]: 6.34% | viability, T/C [11]: 0.22% | viability, T/C [12]: 110% | viability, T/C [13]: 111% | viability, T/C [14]: 111% | viability, T/C [15]: 54.3% | viability, T/C [16]: 1.86% | viability, T/C [17]: 0.17% | viability, T/C [18]: 110% | viability, T/C [19]: 111% | viability, T/C [20]: 116% | viability, T/C [21]: 53.2% | viability, T/C [22]: 1.62% | viability, T/C [23]: 0.2% | viability, T/C [24]: 111% | viability, T/C [25]: 117% | viability, T/C [26]: 110% | viability, T/C [27]: 52.6% | viability, T/C [28]: 1.26% | viability, T/C [29]: 0.43% | viability, T/C [30]: 117% | viability, T/C [31]: 114% | viability, T/C [32]: 100% | viability, T/C [33]: 36.1% | viability, T/C [34]: 0.83% | viability, T/C [35]: 0.22%
